Entries after “also recorded” stand apart in the source; their conditions may differ.
How the values were obtained:
Ire1 = Ire1 (Homo sapiens, UniProt O75460); assay: Ire1 autophosphorylation in vitro kinase assay; format: biochemical; conditions: 32P-γ-ATP, up to 50 μM
Procedure: Suppression of thapsigargin-induced phosphorylation of p38MAPK was also measured by a quantitative ELISA-methods, with IC50 for p38MAPK phosphorylation estimated at <5 μM. In contrast, thapsigargin-induced expression of CHOP, expression of ATF4, proteolytic processing of ATF6, phosphorylation of eIF2a (Ser 51), auto-phosphorylation of Ire1a or auto-phosphorylation of ASK1 were not inhibited directly by CID-2878746 at concentrations up to 50 μM tested by in vitro kinase assay using p32-γ-ATP substrate. […] Thapsigargin-induced reductions in phosphorylation of ASK1 at the serine 967 site in ASK1 transfected 293T cells are inhibited by compound 5962123 at concentrations of 50-100 μM, as determined by immunoblotting using anti-phospho-specific (ser 967) antibody, but thapsigargin-induced changes in phosphorylation of ASK1 at ser 83 and thr 845 are not modulated by compound 5962123 at concentrations as high as 100 μM in ASK1-transfected HEK293T cells.
C-Jun and p38 MAPK work downstream of the Ire1 pathway (see FIG. 21), we tested whether one of our hit compounds (6239507) inhibits autophosphorylation of any of kinases in this Ire1-ASK1-JNK/p38 MAPK pathway. […] An Ire1 autophosphorylation assay was performed. […] Incorporation values of ^32P-γ-ATP were evaluated by a scintillation counter. […] Incorporation values of ^32P-γ-ATP were evaluated by a scintillation counter. […]

[1] = test system: ASK1 binding to 14-3-3 protein; assay: Co-immunoprecipitation of ASK1 with 14-3-3 in transfected 293T cells; format: cell-based; conditions: thapsigargin-stimulated transfected 293T; 100 μM where stated
Procedure: Phosphorylation of ASK1 at various sites was inspected. 293T cells were transfected with pcDNA-ASK1-HA. One day later, cells were incubated with DMSO (0.4%) or 100 μM compound 6239507 (#1) for two hours. Cell extracts were prepared using lysis buffer and were subjected to immunoblotting using anti-phospho ASK1 antibodies or anti HA antibody as indicated (A). The relative density of each phosphorylated ASK band was calculated by imageJ software (B). In (C), compounds from (A) were compared in activity against thapsigargin-induced cell death. […] (D) 293T cells were transfected with pcDNA-ASK1-HA and pEBG-GST-14-3-3. One day later cells were incubated with DMSO (0.4%) or 100 μM of the indicated compound for two hours. Then cells were treated with thapsigargin (20 μM) for the indicated time. Cell extracts were prepared using lysis buffer, and 14-3-3 proteins were immunoprecipitated with […] sepharose beads. ASK1 protein binding with 14-3-3 was visualized by immunoblotting using anti-HA antibody. Anti-phospho ASK1 (ser967) antibody was used to detect phosphorylation of ASK1 at each time point. […]
The ser 967 site of ASK1 is known to down-regulate ASK1 activity by phosphorylation (Goldman et al., J. Biol. Chem. 279:10442-10449, 2004) via 14-3-3 binding. […] The relative density of each phosphorylated ASK band was calculated by imageJ software. […]

Chain of Ire1 (O75460 19-977, species assumed): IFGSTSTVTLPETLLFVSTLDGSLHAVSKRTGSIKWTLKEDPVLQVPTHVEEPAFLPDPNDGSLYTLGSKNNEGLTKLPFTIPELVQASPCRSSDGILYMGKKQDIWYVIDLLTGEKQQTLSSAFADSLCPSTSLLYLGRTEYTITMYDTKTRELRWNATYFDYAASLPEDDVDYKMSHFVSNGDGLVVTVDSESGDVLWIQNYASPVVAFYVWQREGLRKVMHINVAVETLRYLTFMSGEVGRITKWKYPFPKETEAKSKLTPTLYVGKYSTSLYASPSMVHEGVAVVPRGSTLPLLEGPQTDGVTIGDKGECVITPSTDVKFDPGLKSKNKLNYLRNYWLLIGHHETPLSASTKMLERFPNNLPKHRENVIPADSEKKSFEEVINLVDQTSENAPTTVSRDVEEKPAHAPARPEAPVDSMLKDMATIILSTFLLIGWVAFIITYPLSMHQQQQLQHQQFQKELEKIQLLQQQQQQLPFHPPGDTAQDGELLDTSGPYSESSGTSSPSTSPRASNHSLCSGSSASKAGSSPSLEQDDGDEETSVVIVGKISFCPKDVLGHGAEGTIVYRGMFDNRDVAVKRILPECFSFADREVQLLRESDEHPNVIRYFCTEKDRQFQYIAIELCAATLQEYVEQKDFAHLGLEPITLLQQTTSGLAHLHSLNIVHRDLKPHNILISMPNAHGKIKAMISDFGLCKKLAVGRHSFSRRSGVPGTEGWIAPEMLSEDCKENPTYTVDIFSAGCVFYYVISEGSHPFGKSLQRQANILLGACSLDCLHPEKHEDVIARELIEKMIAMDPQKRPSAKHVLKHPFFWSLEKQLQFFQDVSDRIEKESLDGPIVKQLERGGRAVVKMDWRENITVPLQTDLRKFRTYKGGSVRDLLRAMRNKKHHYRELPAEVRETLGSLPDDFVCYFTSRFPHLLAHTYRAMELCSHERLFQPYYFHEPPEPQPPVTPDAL

SMILES | Ire1 auto-phosphorylation (Ire1; listed as CID-2878746) | Binding of ASK1 to 14-3-3 protein [1] | Ire1 auto-phosphorylation (Ire1)
CCN(CC)c1ccc(C2Nc3ccccc3NC3=C2C(=O)CC(c2ccccc2)C3)cc1 (stereo not shown) [Compound 5962123, 6-(4-diethylaminophenyl)-9-phenyl-5,6,8,9,10,11-hexahydrobenzo[c][1,5]benzodiazepin-7-one] | not inhibited | increased 14-3-3 binding to ASK1; also recorded: increases binding | 
COc1ccc(C2CC(=O)C3=C(C2)Nc2ccccc2NC3c2cccc(Oc3ccccc3)c2)cc1OC (stereo not shown) [Compound 6239507] |  | inhibits dissociation of 14-3-3 from ASK1 | does not modulate

— patent US20080293699A1, “Inhibitors of thapsigargin-induced cell death” (priority 2007, published 2008)
